In patent US20240309015A1, “Methods for the Treatment of Fibrotic Disease” (SHY Therapeutics, LLC, priority 2021, published 2024):

What was measured:
[1] = system: KRas G12D mutant; assay: Ras GTP Binding Domain Inhibition Assay, KRas G12D mutant; conditions: at 20 μM; for KRas G12D mutant + SOS: % inh.: with SOS; for KRas G12D mutant: % inh.: without SOS
In short: (§1)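 Compounds were tested at 20 μM final, or as dilution series for IC50, against nickel-plate-captured His-tagged GTPase proteins for 3 h at room temperature. Sos exchange factor could be present for the last hour. Labelled GTP (100 nM Cy3 or Cy5) was then bound for 45 min, wells were washed, and retained fluorescence was measured.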

[2] = system: IL-6; assay: Mouse IL6 Quantification Assay (LPS-stimulated RAW 264.7); type: cell-based; set-up: dose or concentration left out as unconfirmed; conditions: RAW264.7, ELISA, read-out: IL-6: % inh.
[3] = system: Smad2/3 phosphorylation; assay: Phospho-Smad2/3 Inhibition Assay in PANC-1; type: cell-based; conditions: Homo sapiens; 10 μM compound, 3 h; TGF-b1 stimulated PANC-1; western blot; read-out: % inh of Smad2/3 phosphorylation in PANC-1
Description: Cell lines: Human tumor-derived pancreatic cancer cell line Panc-1 and mouse muscle myoblast C2C12 were purchased from American Type Culture Collection and grown in complete DMEM-High Glucose, supplemented with penicillin (100 U/mL), streptomycin (100 μg/mL), and 10% heat-inactivated FBS at 37° C. in a humidified incubator with 5% CO2.
Method: Cells were plated at 350000 cells/well density in a 12-well plate, allowed 3 hours to adhere to the plate, then starved in the appropriate medium in the presence of 0.5% FBS overnight. The small molecules to be tested were added to the cells in the final concentration of 10 μM in the presence of 0.3% DMSO for 3 hours incubation at 37° C. For IC50 value determination, serial dilutions of compounds were added to cells under the same conditions. Next, Panc-1 cells were stimulated with 10 ng/ml TGF-b1 for 1 hour, and C2C12 cells were stimulated with 10 ng/ml TGF-b1 for 20 minutes (recombinant human TGF-b1, R&D Systems). After stimulation cells were lysed with lysis buffer containing 1% Triton X-100, EDTA, and Halt™ Protease & Phosphatase Inhibitor Cocktail (Thermo Scientific). Protein concentration was assessed by BCA protein assay (Thermo Scientific). Phosphorylation level of Smad2/Smad3 was determined by western blot.
Western blot protocol: Equal amounts of protein (15-50 μg) were separated by SDS-PAGE and transferred to nitrocellulose membranes (Invitrogen by Thermo Fisher Scientific). The membrane was stained with Ponceau S Stain (Boston BioProducts) to verify uniform protein loading. Membranes were blocked with 10% milk and phosphorylation levels of Smad2/Smad3 were assessed by incubating overnight at 4° C. with the following antibodies: Phospho-Smad2 (Ser465/467) and Phosph-Smad3 (Ser423/425), both from Cell Signaling Technology. Then the membranes were incubated with HRP-conjugated secondary antibody (Jackson Immunoresearch, West Grove, PA). Bands were incubated in Amersham ECL Prime Western Blotting Detection Reagent (GE Healthcare) and visualized using the ChemiDoc MP imaging system (Bio-Rad).

[4] = system: TNFα; assay: Mouse TNF Alpha Quantification Assay (LPS-stimulated RAW 264.7); type: cell-based; set-up: dose or concentration left out as unconfirmed; conditions: RAW264.7, ELISA, read-out: TNFα: % inh.
[5] = system: KRas wild type; assay: Ras GTP Binding Domain Inhibition Assay, KRas wild type; conditions: at 20 μM; for KRas wild type + SOS: % inh.: with SOS; for KRas wild type: % inh.: without SOS
In short: as §1

[6] = system: KRas G12C mutant; assay: Ras GTP Binding Domain Inhibition Assay, KRas G12C mutant; conditions: at 20 μM; for KRas G12C mutant + SOS: % inh.: with SOS; for KRas G12C mutant: % inh.: without SOS
In short: as §1

[7] = system: Rho-A; assay: Ras GTP Binding Domain Inhibition Assay, Rho-A; conditions: at 20 μM; without SOS
In short: as §1

| SMILES | KRas G12D mutant + SOS: % inh. ([1]; Table 7) | KRas G12D mutant + SOS: % inh. ([1]; Table 8) | KRas G12D mutant: % inh. ([1]; Table 7) | KRas G12D mutant: % inh. ([1]; Table 8) | inhibition [2] | inhibition at 10 µM [3] | inhibition [4] | KRas wild type + SOS: % inh. [5] | KRas wild type: % inh. [5] | KRas G12C mutant + SOS: % inh. [6] | KRas G12C mutant: % inh. [6] | Rho-A: % inh. [7] |
| --- | --- | --- | --- | --- | --- | --- | --- | --- | --- | --- | --- | --- |
| COc1cc(Nc2nc(-c3nccn3C)nc3sc(-c4ccn(C(C)C)n4)c(C)c23)ncn1 [Compound 19, 6-(1-Isopropyl-1H-pyrazol-3-yl)-N-(6-methoxypyrimidin-4-yl)-5-methyl-2-(1-methyl-1H-imidazol-2-yl)thieno[2,3-d]pyrimidin-4-amine] | C (C = 46-75% inhibition) | C (C = 46-75% inhibition) | B (B = 26-45% inhibition) | B (B = 26-45% inhibition) | 76 to 100% | 76 to 100% | 76 to 100% | D (D = 76-100% inhibition) | D (D = 76-100% inhibition) | D (D = 76-100% inhibition) | C (C = 46-75% inhibition) | D (D = 76-100% inhibition) |
| COCCn1c(-c2nccn2C)nc2sc(-c3ccn(C(C)C)n3)c(C)c2c1=O [Compound 29, 6-(1-Isopropyl-1H-pyrazol-3-yl)-3-(2-methoxyethyl)-5-methyl-2-(1-methyl-1H-imidazol-2-yl)thieno[2,3-d]pyrimidin-4(3H)-one] | C (C = 46-75% inhibition) | C (C = 46-75% inhibition) | C (C = 46-75% inhibition) | C (C = 46-75% inhibition) | 76 to 100% | 0% | 76 to 100% | D (D = 76-100% inhibition) | D (D = 76-100% inhibition) | D (D = 76-100% inhibition) | C (C = 46-75% inhibition) | D (D = 76-100% inhibition) |
| COCCCn1c(-c2nccn2C)nc2sc(-c3ccn(C(C)C)n3)c(C)c2c1=O [Compound 31, 6-(1-Isopropyl-1H-pyrazol-3-yl)-3-(3-methoxypropyl)-5-methyl-2-(1-methyl-1H-imidazol-2-yl)thieno[2,3-d]pyrimidin-4(3H)-one] | 0 (0 = 0% inhibition) | 0 (0 = 0% inhibition) | 0 (0 = 0% inhibition) | 0 (0 = 0% inhibition) | 46 to 75% | 0% | 0% | A (A = 1-25% inhibition) | A (A = 1-25% inhibition) | 0 (0 = 0% inhibition) | 0 (0 = 0% inhibition) | 0 (0 = 0% inhibition) |
| COc1cccc(-c2sc3nc(-c4nccn4C)nc(N[C@H]4C[C@H](OC)C4)c3c2-c2ccccc2)c1F [Compound 40, 6-(2-Fluoro-3-methoxyphenyl)-N-((1r,3r)-3-methoxycyclobutyl)-2-(1-methyl-1H-imidazol-2-yl)-5-phenylthieno[2,3-d]pyrimidin-4-amine] | D (D = 76-100% inhibition) | D (D = 76-100% inhibition) | C (C = 46-75% inhibition) | C (C = 46-75% inhibition) | 76 to 100% | 76 to 100% | 76 to 100% | D (D = 76-100% inhibition) | C (C = 46-75% inhibition) | D (D = 76-100% inhibition) | C (C = 46-75% inhibition) | B (B = 26-45% inhibition) |
| Cc1c(-c2ccn(C(C)C)n2)sc2nc(-c3nccn3C)nc(NCC3CCCO3)c12 (racemic) [Compound 26, rac-6-(1-Isopropyl-1H-pyrazol-3-yl)-5-methyl-2-(1-methyl-1H-imidazol-2-yl)-N-((tetrahydrofuran-2-yl)methyl)thieno[2,3-d]pyrimidin-4-amine] | C (C = 46-75% inhibition) | C (C = 46-75% inhibition) | D (D = 76-100% inhibition) | D (D = 76-100% inhibition) | 76 to 100% | 0% | 0% | D (D = 76-100% inhibition) | D (D = 76-100% inhibition) | D (D = 76-100% inhibition) | D (D = 76-100% inhibition) | D (D = 76-100% inhibition) |
| COCCCCOc1nc(-c2nccn2C)nc2sc(-c3ccn(C(C)C)n3)c(C)c12 [Compound 34, 6-(1-Isopropyl-1H-pyrazol-3-yl)-4-(4-methoxybutoxy)-5-methyl-2-(1-methyl-1H-imidazol-2-yl)thieno[2,3-d]pyrimidine] | 0 (0 = 0% inhibition) | 0 (0 = 0% inhibition) | A (A = 1-25% inhibition) | A (A = 1-25% inhibition) | 76 to 100% | 0% | 0% | 0 (0 = 0% inhibition) | A (A = 1-25% inhibition) | A (A = 1-25% inhibition) | 0 (0 = 0% inhibition) | 0 (0 = 0% inhibition) |
| COCCOc1nc(-c2nccn2C)nc2sc(-c3ccn(C(C)C)n3)c(C)c12 [Compound 30, 6-(1-Isopropyl-1H-pyrazol-3-yl)-4-(2-methoxyethoxy)-5-methyl-2-(1-methyl-1H-imidazol-2-yl)thieno[2,3-d]pyrimidine] | 0 (0 = 0% inhibition) | 0 (0 = 0% inhibition) | 0 (0 = 0% inhibition) | 0 (0 = 0% inhibition) | 0% | 0% | 0% | 0 (0 = 0% inhibition) | A (A = 1-25% inhibition) | 0 (0 = 0% inhibition) | A (A = 1-25% inhibition) | 0 (0 = 0% inhibition) |
| COc1cccc(Nc2nc(-c3nccn3C)nc3sc(-c4ccn(C(C)C)n4)c(C)c23)c1 [Compound 17, 6-(1-Isopropyl-1H-pyrazol-3-yl)-N-(3-methoxyphenyl)-5-methyl-2-(1-methyl-1H-imidazol-2-yl)thieno[2,3-d]pyrimidin-4-amine] | C (C = 46-75% inhibition) | C (C = 46-75% inhibition) | C (C = 46-75% inhibition) | C (C = 46-75% inhibition) | 76 to 100% | 46 to 75% | 76 to 100% | C (C = 46-75% inhibition) | B (B = 26-45% inhibition) | D (D = 76-100% inhibition) | C (C = 46-75% inhibition) | C (C = 46-75% inhibition) |
